Data published in US20080026067A1, “Method for Increasing Specific Surface Area of Slightly Soluble Drug” (priority 2004, published 2008).

Columns and labels:
Type in all cases: physicochemical
[1] = Specific surface area of the powder, multipoint BET method
Procedure: A specific surface area of a powder of the compound A obtained by the above-described methods and the following Examples can be measured by known method, for example, multipoint BET method.
A specific surface area of the compound A was adjusted to give the crystalline powders with different specific surface area by the following method. As well, the measurement of specific surface area was performed by multipoint BET method.

[2] = Accelerated test (storage stability: purity by HPLC, degree of moisture by Karl Fisher); conditions: for Degree of moisture (%) / Purity (%): crushing composition
Procedure: 1 g of the powder of compound A was poured into the two-lay plastic bag and closed firmly with banding band. This was poured into miniature fiber dram and then this was preserved in the stability tester under the condition for 6 months, at 40° C., at 75% relative humidity. And then, the purity (quantitative value) and the degree of moisture (%) of the powder of compound A were measured. The measurement of the degree of moisture was performed by known method: the moisture vaporization method/Karl Fisher electrometrical titration method. The measurement of purity was performed by high performance liquid chromatography (HPLC).
About 0.04 mg/mL N,N-dimethylformamide/acetontirile (3/7) solution of reference material and measurement sample of compound A was prepared. In this case, the concentration of the solutions was precisely found. These solutions was set under the below test condition and the purity of measurement sample was calculated from the obtained area value of the peak.
• The detector: ultraviolet absorptiometer (measurement wavelength: 278 nm), • The column: YMC-Pack ODS-A-302 (inside diameter 4.6 mm, length 15 cm), • The mobile phase: acetonitrile/5 mmol/L sodium acetate buffer (It was prepared to pH 4.5 using acetate.)/2-propanol mixture (5/4/1), • The flow: The retention time of the compound A was prepared to be about 12 minutes (about 1.0 mL/min), • The column temperature: the constant temperature in the vicinity of 40° C. • The injection volume: 20 μL.

[3] = Measurement of bulk density
Procedure: A bulk density of a powder of the compound A is preferably in the range of about 0.05 to about 0.3 g/cm^3, and more preferably in the range of about 0.05 to about 0.2 g/cm^3. A bulk density can be measured by known method. It includes, for example, the method that about 3 g sample is precisely weighed, it is put into dried 50 mL graduated cylinder (scale: by 0.1 mL) without consolidation, it reads to minimum unit of scale and value that the weight (g) of particulate is divided by the volume (cm^3) of particulate is assumed bulk density (g/cm^3), and method described in the following Examples and so on.
About 3 g of compound A is precisely weighed, it is put into dried 50 mL graduated cylinder (scale: by 0.1 mL) without consolidation, it reads to minimum unit of scale. The value that the weight (g) of particulate is divided by the volume (cm^3) of particulate is assumed bulk density (g/cm^3). As a result, the bulk density of the powder of compound A prepared in Adjustment Example 4(3) was 0.18 g/cm^3 (non-crushing composition) and […] (crushing composition). The bulk density of compound A prepared in Adjustment Example 4(4) was 0.18 g/cm^3 (non-crushing composition) and 0.08 g/cm^3 (crushing composition).

[4] = Measurement of tap density; conditions: tapped 3 minutes at 60 times/minute
Procedure: A tap density of a powder of the compound A is preferably in the range of about 0.1 to about 0.4 g/cm^3, and more preferably in the range of about 0.1 to about 0.3 g/cm^3. A tap density can be measured by known method. It includes, for example, the method that about 3 g sample is precisely weighed, it is put into dried 50 mL graduated cylinder (scale: by 0.1 mL) without consolidation, the graduated cylinder is set on tapping machine for tap density, then it is tapped for 3 minutes at 60 times/minute, final tap density is found, and value that the weight (g) of particulate is divided by final tap density (cm^3) of particulate is assumed tap density (g/cm^3), and method described in the following Examples and so on.
About 3 g of the powder of compound A is precisely weighed, it is put into dried 50 mL graduated cylinder (scale: by 0.1 mL) without consolidation, the graduated cylinder is set on tapping machine for tap density, then it is tapped for 3 minutes at 60 times/minute, final tap density is found. The value that the weight (g) of particulate is divided by final bulk density (cm^3) of particulate is assumed tap density (g/cm^3). As a result, the tap density of the powder of compound A prepared in Adjustment Example 4(3) was 0.28 g/cm^3 (non-crushing composition) and 0.13 g/cm^3 (crushing composition). The tap density of tie powder of compound A prepared in Adjustment Example 4(4) was 0.23 g/cm^3 (non-crushing composition) and 0.16 g/cm^3 (crushing composition).[

[5] = Dissolution test (Japanese Pharmacopoeia method 2, Paddle method); conditions: pH 6.8 McIlvaine buffer, 2.0% (w/v) sodium lauryl sulfate, 900 mL, 37°C, 50 rpm, 30 mg
Procedure: In the present invention, the dissolution rate in the dissolution test, according to dissolution test method 2 (Paddle method) of general test in the Japanese Pharmacopoeia, is the value that the method is performed on condition that 50 rounds per minute in pH6.8 McIlvaine buffer solution including 2.0% (w/v) sodium lauryl sulfate. More detail, it includes the method described in the following method or the method pursuant thereof and so on.
The powder of compound A prepared in the above described Preparation Example 4 (specific surface area=12.51 m^2/g) and Preparation Example 6 (specific surface area=5.46 m^2/g) was sieved by 60 mesh sieve (250 μm) respectively and the sieved material was weighed out 30 mg and then poured into the test solution. The dissolution test was performed under the below described condition of the dissolution test. However, the compound A was suspended with about 2 mL test solution and then the compound A poured into the test solution. The eluate 10 mL obtained at each sampling time was filtrated with membrane filter having 0.45 μm pore diameter. The first filtrate 2 mL was removed and the rest of filtrate was as the solution of test material. The compound A prepared in Preparation Example 12 was precisely weighed out about 33.3 mg and it was dissolved by adding methanol to adjust 100 mL. Among this solution, 5 mL was weighed out and it was added by test solution to adjust 50 mL. It was made as the standard solution (0.0333 mg/mL) that […] of the compound A was dissolved. The absorbance of the solution of test material and standard solution in wavelength 278 nm was measured by the measurement of ultraviolet visible absorbance respectively and according to the below formula, the dissolution rate was found.
The Dissolution Test Condition:
• Apparatus: The Japanese Pharmacopoeia, general test, dissolution test method 2 (Paddle method), • Test solution; McIlvaine buffer solution containing of 2.0% (w/v) sodium lauryl sulfate, pH 6.8 • Test solution volume: 900 mL • Temperature: 37±0.5° C. • Rotation speed: 50 rotations per minute • Sampling volume of eluate: 10 mL • Sampling time: 5, 10, 15, 30, 45, 60 and 90 minutes. [formula] [formula] • W: The volume of compound A containing of standard solution (33.3 mg) • t: The number of sampling • C: The volume of compound A poured into the test solution (30 mg) • Ct: The concentration of compound A in the solution of test material at t times sampling • ΣCn: The sum of the concentration of compound A in the solution of test material from n=1 to t−1 • At: The absorbance of the solution of test material • As: The average of absorbance of the […] of repeated measurement at three times • V: The volume of the test solution (900 mL) • v: The sampling volume of the eluate (10 mL)

[6] = crushing composition (jet mill crushed)
[7] = 6 months at 40°C, 75% relative humidity
[8] = over 6 months at 40°C, 75% relative humidity

Cc1ccc(-c2nc(CCOc3cccc4c3CCC=C4CCC(=O)O)c(C)o2)cc1 [Adjustment Example 1, 3-(5-{2-[5-methyl-2-(4-methylphenyl)-1,3-oxazol-4-yl]ethoxy}-3,4-dihydronaphthalen-1-yl)propanoic acid]
specific surface area ([1]; powder as obtained): 42.24 m^2/g

Cc1ccc(-c2nc(CCOc3cccc4c3CCC=C4CCC(=O)O)c(C)o2)cc1 [Adjustment Example 2, 3-(5-{2-[5-methyl-2-(4-methylphenyl)-1,3-oxazol-4-yl]ethoxy}-3,4-dihydronaphthalen-1-yl)propanoic acid]
specific surface area ([1]; powder as obtained): 20.43 m^2/g

Cc1ccc(-c2nc(CCOc3cccc4c3CCC=C4CCC(=O)O)c(C)o2)cc1 [Adjustment Example 3, 3-(5-{2-[5-methyl-2-(4-methylphenyl)-1,3-oxazol-4-yl]ethoxy}-3,4-dihydronaphthalen-1-yl)propanoic acid]
specific surface area [1, 6]: 20.6 m^2/g
specific surface area ([1]; non-crushing composition): 19.6 m^2/g
Degree of moisture (%) ([2]; 0 month): 0.3%
Purity (%) ([2]; 0 month): 95.4%
Degree of moisture (%) [2, 7]: 0.6%
Purity (%) [2, 7]: 94.4%
change (increase) of degree of moisture [2, 8]: 0.3%
decrease of purity [2, 8]: 1.0%

Cc1ccc(-c2nc(CCOc3cccc4c3CCC=C4CCC(=O)O)c(C)o2)cc1 [Adjustment Example 4(1), 3-(5-{2-[5-methyl-2-(4-methylphenyl)-1,3-oxazol-4-yl]ethoxy}-3,4-dihydronaphthalen-1-yl)propanoic acid]
specific surface area ([1]; powder as obtained): 6.7 m^2/g

Cc1ccc(-c2nc(CCOc3cccc4c3CCC=C4CCC(=O)O)c(C)o2)cc1 [Adjustment Example 4(2), 3-(5-{2-[5-methyl-2-(4-methylphenyl)-1,3-oxazol-4-yl]ethoxy}-3,4-dihydronaphthalen-1-yl)propanoic acid]
specific surface area ([1]; powder as obtained): 17.8 m^2/g

Cc1ccc(-c2nc(CCOc3cccc4c3CCC=C4CCC(=O)O)c(C)o2)cc1 [Adjustment Example 4(3), 3-(5-{2-[5-methyl-2-(4-methylphenyl)-1,3-oxazol-4-yl]ethoxy}-3,4-dihydronaphthalen-1-yl)propanoic acid]
bulk density ([3]; crushing composition): 0.8 g/mL
bulk density ([3]; non-crushing composition): 0.18 g/mL
specific surface area [1, 6]: 12.7 m^2/g
specific surface area ([1]; non-crushing composition): 11.0 m^2/g
tap density ([4]; crushing composition): 0.13 g/mL
tap density ([4]; non-crushing composition): 0.28 g/mL

Cc1ccc(-c2nc(CCOc3cccc4c3CCC=C4CCC(=O)O)c(C)o2)cc1 [Adjustment Example 4, 3-(5-{2-[5-methyl-2-(4-methylphenyl)-1,3-oxazol-4-yl]ethoxy}-3,4-dihydronaphthalen-1-yl)propanoic acid]
specific surface area ([1]; powder as obtained): 12.51 m^2/g
Dissolution rate (%) ([5]; 0 minutes): 0.00%
Dissolution rate (%) ([5]; 5 minutes): 65.46%
Dissolution rate (%) ([5]; 10 minutes): 76.67%
Dissolution rate (%) ([5]; 15 minutes): 82.17%
Dissolution rate (%) ([5]; 30 minutes): 88.95%
Dissolution rate (%) ([5]; 45 minutes): 92.15%
Dissolution rate (%) ([5]; 60 minutes): 94.10%
Dissolution rate (%) ([5]; 90 minutes): 96.20%

Cc1ccc(-c2nc(CCOc3cccc4c3CCC=C4CCC(=O)O)c(C)o2)cc1 [Adjustment Example 5, 3-(5-{2-[5-methyl-2-(4-methylphenyl)-1,3-oxazol-4-yl]ethoxy}-3,4-dihydronaphthalen-1-yl)propanoic acid]
specific surface area ([1]; powder as obtained): 5.00 m^2/g

Cc1ccc(-c2nc(CCOc3cccc4c3CCC=C4CCC(=O)O)c(C)o2)cc1 [Adjustment Example 6, 3-(5-{2-[5-methyl-2-(4-methylphenyl)-1,3-oxazol-4-yl]ethoxy}-3,4-dihydronaphthalen-1-yl)propanoic acid]
specific surface area ([1]; powder as obtained): 5.46 m^2/g
Dissolution rate (%) ([5]; 0 minutes): 0.00%
Dissolution rate (%) ([5]; 5 minutes): 32.3%
Dissolution rate (%) ([5]; 10 minutes): 41.7%
Dissolution rate (%) ([5]; 15 minutes): 48.0%
Dissolution rate (%) ([5]; 30 minutes): 58.5%
Dissolution rate (%) ([5]; 45 minutes): 64.3%
Dissolution rate (%) ([5]; 60 minutes): 68.0%

Cc1ccc(-c2nc(CCOc3cccc4c3CCC=C4CCC(=O)O)c(C)o2)cc1 [Compound A, 3-(5-{2-[5-methyl-2-(4-methylphenyl)-1,3-oxazol-4-yl]ethoxy}-3,4-dihydronaphthalen-1-yl)propanoic acid]
specific surface area ([1]; powder as obtained): 2.4 m^2/g
